Test results reported in ChEMBL document CHEMBL3804755, “Discovery of new [1,4]dioxino[2,3-f]quinazoline-based inhibitors of EGFR including the T790M/L858R mutant” (Bioorg Med Chem, 2016).

How the values were obtained:
[1] = target: Epidermal growth factor receptor (Homo sapiens, UniProt P00533); assay: Inhibition of wild type EGFR (unknown origin) autophosphorylation preincubated for 30 mins followed by ATP addition measured after 1 hr by kinase-glo luminescence assay
[2] = target: Epidermal growth factor receptor (Homo sapiens, UniProt P00533, L858R/T790M); type: protein assay
[3] = Cytotoxicity against HEK293T assessed as reduction in cell viability by MTT assay; type: cell-based, HEK-293T; conditions: human, HEK293T cells
NCI-H358 = assay: Antiproliferative activity against human NCI-H358 cells assessed as reduction in cell viability after 48 hrs by cck8 assay; type: functional, cell-based; conditions: NCI-H358, 48 h
A549 = assay: Antiproliferative activity against human A549 cells assessed as reduction in cell viability after 48 hrs by cck8 assay; type: functional, cell-based; conditions: A549, 48 h

Chain of Epidermal growth factor receptor (Homo sapiens, UniProt P00533, L858R/T790M) (P00533 25-1210 T790M/L858R limits assumed): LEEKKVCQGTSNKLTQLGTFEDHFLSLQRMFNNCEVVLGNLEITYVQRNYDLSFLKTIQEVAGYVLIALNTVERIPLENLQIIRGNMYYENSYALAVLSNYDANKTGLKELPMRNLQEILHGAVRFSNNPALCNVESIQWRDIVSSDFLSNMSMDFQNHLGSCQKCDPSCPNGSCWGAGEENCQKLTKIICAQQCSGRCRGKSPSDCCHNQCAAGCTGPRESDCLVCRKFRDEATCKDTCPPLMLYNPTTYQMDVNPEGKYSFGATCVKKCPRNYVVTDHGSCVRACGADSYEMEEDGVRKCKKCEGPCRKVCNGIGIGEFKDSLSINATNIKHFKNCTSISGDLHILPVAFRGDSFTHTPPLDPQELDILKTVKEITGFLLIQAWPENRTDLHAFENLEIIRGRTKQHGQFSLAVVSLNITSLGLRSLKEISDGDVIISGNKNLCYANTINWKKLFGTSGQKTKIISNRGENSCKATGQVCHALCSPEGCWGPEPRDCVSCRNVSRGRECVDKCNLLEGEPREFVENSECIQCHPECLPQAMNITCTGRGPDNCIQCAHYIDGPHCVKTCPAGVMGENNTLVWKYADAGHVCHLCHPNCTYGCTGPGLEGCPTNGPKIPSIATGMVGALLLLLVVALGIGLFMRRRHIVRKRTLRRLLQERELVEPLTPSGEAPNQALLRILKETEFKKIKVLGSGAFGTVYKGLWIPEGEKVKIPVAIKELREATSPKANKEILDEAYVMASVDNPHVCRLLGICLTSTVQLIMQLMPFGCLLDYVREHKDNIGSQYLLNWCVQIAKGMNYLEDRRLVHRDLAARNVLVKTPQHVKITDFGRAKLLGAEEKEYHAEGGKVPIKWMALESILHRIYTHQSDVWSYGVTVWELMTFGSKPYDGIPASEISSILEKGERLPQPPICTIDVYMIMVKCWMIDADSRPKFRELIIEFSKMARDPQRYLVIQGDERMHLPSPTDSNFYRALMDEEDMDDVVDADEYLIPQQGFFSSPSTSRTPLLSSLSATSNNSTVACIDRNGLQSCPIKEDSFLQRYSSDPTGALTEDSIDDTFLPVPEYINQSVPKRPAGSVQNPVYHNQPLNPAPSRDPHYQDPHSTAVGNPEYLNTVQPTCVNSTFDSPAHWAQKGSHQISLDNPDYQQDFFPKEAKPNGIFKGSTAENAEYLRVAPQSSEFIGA
Chain of Epidermal growth factor receptor (Homo sapiens, UniProt P00533) (P00533 whole entry): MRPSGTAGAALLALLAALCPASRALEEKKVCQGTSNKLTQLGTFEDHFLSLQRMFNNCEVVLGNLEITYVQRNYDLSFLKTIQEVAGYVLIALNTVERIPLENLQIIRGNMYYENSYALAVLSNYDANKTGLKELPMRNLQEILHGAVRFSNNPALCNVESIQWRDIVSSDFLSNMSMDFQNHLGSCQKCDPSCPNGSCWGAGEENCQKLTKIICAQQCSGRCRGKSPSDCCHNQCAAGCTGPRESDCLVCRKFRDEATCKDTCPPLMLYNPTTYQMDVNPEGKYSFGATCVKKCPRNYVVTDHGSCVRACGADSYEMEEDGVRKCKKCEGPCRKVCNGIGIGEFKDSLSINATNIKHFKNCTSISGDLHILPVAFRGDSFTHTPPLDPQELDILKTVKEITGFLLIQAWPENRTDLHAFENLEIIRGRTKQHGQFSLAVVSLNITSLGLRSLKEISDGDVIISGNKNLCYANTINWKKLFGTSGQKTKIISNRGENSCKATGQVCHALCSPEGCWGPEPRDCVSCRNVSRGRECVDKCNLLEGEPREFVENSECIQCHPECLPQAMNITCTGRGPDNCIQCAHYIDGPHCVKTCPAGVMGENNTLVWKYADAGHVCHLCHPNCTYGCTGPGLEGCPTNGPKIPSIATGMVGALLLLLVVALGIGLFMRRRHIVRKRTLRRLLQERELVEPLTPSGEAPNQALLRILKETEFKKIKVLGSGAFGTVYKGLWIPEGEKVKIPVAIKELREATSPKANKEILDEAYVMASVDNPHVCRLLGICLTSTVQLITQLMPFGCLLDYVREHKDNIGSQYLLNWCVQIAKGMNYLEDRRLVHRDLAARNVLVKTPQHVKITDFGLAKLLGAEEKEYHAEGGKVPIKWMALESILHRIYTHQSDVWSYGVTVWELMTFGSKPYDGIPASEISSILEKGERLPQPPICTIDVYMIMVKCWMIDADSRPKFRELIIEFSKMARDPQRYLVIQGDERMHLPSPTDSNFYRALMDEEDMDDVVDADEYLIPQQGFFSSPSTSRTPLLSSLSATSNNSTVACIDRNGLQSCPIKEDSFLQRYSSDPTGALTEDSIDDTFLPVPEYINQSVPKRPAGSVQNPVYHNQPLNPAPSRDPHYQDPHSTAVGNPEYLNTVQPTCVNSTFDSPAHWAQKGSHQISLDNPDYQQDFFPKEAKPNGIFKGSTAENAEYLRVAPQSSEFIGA

Row | IC50 [1] | IC50 [2] | IC50 (NCI-H358) | IC50 (A549) | Compound | CC50 [3]
1 | > 1000 nM | > 1000 nM |  |  | CCOC(C)Oc1cc2ncnc(Nc3ccc(OC)c([N+](=O)[O-])c3)c2c2c1OCCO2 (stereo not given) | 
2 | 184 nM | > 1000 nM |  |  | Cc1ccc(Nc2ncnc3cc(OC(C)C)c4c(c23)OCCO4)cc1[N+](=O)[O-] | 
3 | 24.1 nM | > 1000 nM |  |  | Fc1ccc(Nc2ncnc3cc(OCC4CCCO4)c4c(c23)OCCO4)cc1Cl (stereo not given) | 
4 | 21 nM | 8.1 nM | 7350 nM | 9930 nM | C#Cc1cccc(Nc2ncnc3cc(OCCOC)c4c(c23)OCCO4)c1 | 22100 nM
5 | 57.8 nM | > 1000 nM |  |  | C#Cc1cccc(Nc2ncnc3cc(OC4CCOCC4)c4c(c23)OCCO4)c1 | 
6 | 58.8 nM | > 1000 nM |  |  | Fc1ccc(Nc2ncnc3cc(OC4CCOCC4)c4c(c23)OCCO4)cc1Cl | 
7 | 200 nM | > 1000 nM |  |  | COCCOc1cc2ncnc(Nc3ccc(F)cc3)c2c2c1OCCO2 | 25900 nM
8 | 83.9 nM |  |  |  | Fc1cccc(Nc2ncnc3cc(OCCCN4CCOCC4)c4c(c23)OCCO4)c1 | 
9 | 388 nM | > 1000 nM |  |  | COCCOc1cc2ncnc(Nc3ccc(F)c(C#N)c3)c2c2c1OCCO2 | 
10 | 22.5 nM | 1000 nM |  |  | COc1cc2ncnc(Nc3ccc(F)c(Cl)c3)c2c2c1OCCO2 | 
11 | 23.7 nM | 31.4 nM | 4540 nM | 6080 nM | C#Cc1cccc(Nc2ncnc3cc(OC(C)C)c4c(c23)OCCO4)c1 | 22100 nM
12 | 97.2 nM |  |  |  | FC(F)(F)c1cccc(Nc2ncnc3cc(OCCCN4CCOCC4)c4c(c23)OCCO4)c1 | 
13 | > 1000 nM | > 1000 nM |  |  | COCCOc1cc2ncnc(Nc3ccc(OC)c([N+](=O)[O-])c3)c2c2c1OCCO2 | 
14 | 363 nM | > 1000 nM |  |  | CCOC(C)Oc1cc2ncnc(Nc3ccc(C)c([N+](=O)[O-])c3)c2c2c1OCCO2 (stereo not given) | 
15 |  |  | 3910 nM | 7350 nM | C#Cc1cccc(Nc2ncnc3cc(OCCOC)c(OCCOC)cc23)c1 [ERLOTINIB] | 28200 nM
16 | 352 nM | > 1000 nM |  |  | CCOC(C)Oc1cc2ncnc(Nc3ccc(F)c(C#N)c3)c2c2c1OCCO2 (stereo not given) | 
17 | > 1000 nM | > 1000 nM |  |  | COc1ccc(Nc2ncnc3cc(OC(C)C)c4c(c23)OCCO4)cc1[N+](=O)[O-] | 
18 | 10.9 nM | > 1000 nM |  |  | C#Cc1cccc(Nc2ncnc3cc(OC)c4c(c23)OCCO4)c1 | 11700 nM
19 | 416 nM | > 1000 nM |  |  | Cc1ccc(Nc2ncnc3cc(OC(C)C)c4c(c23)OCCO4)cc1C#N | 
20 | 27.3 nM | 121 nM |  |  | C#Cc1cccc(Nc2ncnc3cc(OCC4CCCO4)c4c(c23)OCCO4)c1 (stereo not given) | 40200 nM
21 | 4.4 nM | 70 nM |  |  | CCOc1cc2ncnc(Nc3cccc(OC)c3)c2c2c1OCCO2 | 25300 nM

Row | IC50 [1] | IC50 [2] | IC50 (NCI-H358) | IC50 (A549) | Compound | CC50 [3]
22 | 20.5 nM | 151 nM |  |  | Fc1ccc(Nc2ncnc3cc(OC4CCOC4)c4c(c23)OCCO4)cc1Cl (stereo not given) | 
23 | 9.2 nM | 21.5 nM | 8890 nM | 10500 nM | C#Cc1cccc(Nc2ncnc3cc(OCC)c4c(c23)OCCO4)c1 | 28200 nM
24 | 314 nM | > 1000 nM |  |  | CC(C)Oc1cc2ncnc(Nc3ccc(F)c(C#N)c3)c2c2c1OCCO2 | 
25 | 232 nM | 271 nM |  |  | CCOC(C)Oc1cc2ncnc(Nc3ccc(F)c([N+](=O)[O-])c3)c2c2c1OCCO2 (stereo not given) | 
26 | 474 nM | 76.1 nM |  |  | C#Cc1cccc(Nc2ncnc3cc(OC(C)COC)c4c(c23)OCCO4)c1 (stereo not given) | 
27 | 16.7 nM | 324 nM |  |  | C#Cc1cccc(Nc2ncnc3cc(OC4CCOC4)c4c(c23)OCCO4)c1 (stereo not given) | 
28 | 21.9 nM |  |  |  | Clc1cccc(Nc2ncnc3cc(OCCCN4CCOCC4)c4c(c23)OCCO4)c1 | 
29 | 13.1 nM | 10.5 nM | 5930 nM | 13900 nM | COCCOc1cc2ncnc(Nc3ccc(F)c(Cl)c3)c2c2c1OCCO2 | 
30 | > 1000 nM | > 1000 nM |  |  | CCOC(C)Oc1cc2ncnc(Nc3ccc(C)c(C#N)c3)c2c2c1OCCO2 (stereo not given) | 
31 | 3.6 nM | 124 nM |  |  | CCOc1cc2ncnc(Nc3ccc(C)cc3)c2c2c1OCCO2 | 27400 nM
32 | 9.7 nM | 71 nM |  |  | CCOc1cc2ncnc(Nc3cccc([N+](=O)[O-])c3)c2c2c1OCCO2 | 42000 nM
33 | 18.5 nM |  |  |  | Brc1cccc(Nc2ncnc3cc(OCCCN4CCOCC4)c4c(c23)OCCO4)c1 | 
34 | 82.5 nM | > 1000 nM |  |  | CC(C)Oc1cc2ncnc(Nc3ccc(F)c([N+](=O)[O-])c3)c2c2c1OCCO2 | 
35 | 25.9 nM |  |  |  | Fc1ccc(Nc2ncnc3cc(OCCCN4CCOCC4)c4c(c23)OCCO4)cc1Cl | 
36 | 160 nM | 109 nM |  |  | COCCOc1cc2ncnc(Nc3cccc(OC)c3)c2c2c1OCCO2 | 20800 nM
37 | 103 nM | 1300 nM |  |  | CC(C)Oc1cc2ncnc(Nc3ccc(Cl)c([N+](=O)[O-])c3)c2c2c1OCCO2 | 
38 | 29.1 nM | 46.3 nM | 6920 nM | 11600 nM | CC(C)Oc1cc2ncnc(Nc3ccc(F)c(Cl)c3)c2c2c1OCCO2 | 
39 | 2 nM | 6.9 nM | 22700 nM | 16100 nM | CCOc1cc2ncnc(Nc3ccc(F)c(Cl)c3)c2c2c1OCCO2 | 37000 nM
40 | 74.6 nM | > 1000 nM |  |  | COCCOc1cc2ncnc(Nc3ccc(C)c([N+](=O)[O-])c3)c2c2c1OCCO2 | 
41 | 6.7 nM | 33.8 nM | 17300 nM | 11800 nM | CCOc1cc2ncnc(Nc3ccc(C)c(Cl)c3)c2c2c1OCCO2 | 
42 | 36.2 nM | > 1000 nM |  |  | COCCOc1cc2ncnc(Nc3ccc(Cl)c([N+](=O)[O-])c3)c2c2c1OCCO2 | 
